Results from US20160287536A1, “Composition” (THE UNIVERSITY OF NOTTINGHAM, priority 2013, published 2016).
Values joined by “and” are separate entries in the source; they are usually repeats but may differ in a detail not shown here. Identical values can stand only once. Like-named read-outs stand apart in the source and are kept apart here.

Tests used:
Format in all cases: cell-based
[1] = system: sheep isolated rectal artery; assay: Wire myography, sheep isolated rectal artery (SRA); details: for effect on the noradrenaline CRC: prazosin 0.4-10 nM, RX811059 30 nM; for spontaneous contraction: sheep isolated rectal vessels, 10 μM
Experimental: (§1) Sheep mesenteric tissue, from the distal sigmoid colon to the anus, was obtained from a local abattoir. The sheep tissue was delivered in a dry bag and stored at 4° C. until dissected. The bundle of sheep rectal vessels was dissected from its mesentery within four hours of arrival from the abattoir. The vascular bundle was then kept in the pre-oxygenated Krebs-Henseleit buffer solution at 4° C. until used (on the same day as a preferential method or on the following day after storage overnight). No experiments were conducted on tissue stored for more than 24 hours after dissection. The Krebs solution consisted of 118.4 mM NaCl, 4.7 mM KCl, 1.2 mM MgSO4, 1.2 mM KH2PO4, 1.25 mM CaCl2, 24.9 mM NaHCO3, and 11.1 mM glucose.
(§2) Before setting a wire myography experiment, the remaining loose connective tissue was meticulously removed from the rectal vessels. The internal diameter of sheep isolated rectal artery and vein was 450-650 μm and 500-1000 μm, respectively. Each 5-mm ring segment of the ‘clean’ vessels was then suspended between two 200-μm wire supports in an organ bath containing 20 ml Krebs-Henseleit buffer solution. The upper supporting wire was attached to an isometric force transducer, while the lower wire was fixed steadily to a clamped glass rod. The bath solution was maintained at 37° C., and continuously gassed with 95% O2 and 5% CO2. Isometric tension was continuously recorded using a PowerLab 4/25 via QUAD Bridge amplifier (ADInstruments, Inc, Australia).
(§3) After a 10-minute equilibration period, an initial tension of 8 gram weight (g wt) was gradually applied for an arterial segment and left to relax for 30 minutes. The final tension of SRA varied between 1.0 g wt and 2.8 g wt. For a venous segment, an initial tension of 1 g wt was applied and, 10 minutes later, the resting tension was finally re-adjusted to reach a tension of 0.5 g wt. Then the vein was left to relax for further 20 minutes. The final tension of SRV ranged from 0.08 to 0.25 g wt. Once the vascular segments were fully settled, the tissues were tested for contractile activity with 60 mM KCl on three occasions. The vascular contraction was allowed to reach maximum, which generally took about 1-4 minutes. Each KCl challenge was followed by two washouts of 37° C. Krebs solution and the tissues were allowed to rest for 20 minutes between the challenges. The maximum contraction (tension) produced by the third administration of 60 mM KCl was used as a reference contraction to which subsequent responses were compared. After the final (3rd) KCl challenge, the tissues were washed and left for 60 minutes before α-adrenoceptor agonist was administrated. To construct an agonist concentration-response curves (CRC), 0.3-0.4 log 10 increments of agonist solution was added e.g. at the agonist concentration of 100 nM, 200 nM, 500 nM, 1 μM, 2 μM, 5 μM, and so on. Each response was allowed to reach equilibrium or plateau before the next dose of agonist was added. The maximal response to the agonist was considered when no further increase in response occurred upon the addition of two or more consecutive doses of agonist.
(§4) In the case of the noradrenaline study, 10 μM cocaine was added into the organ bath 40 minutes prior to the administration of noradrenaline for inhibiting the uptake of noradrenaline by neural tissue within the vascular wall (re-uptake 1) (Westfall & Westfall, 2006 In Goodman & Gilman's the Pharmacological Basis of Therapeutics. eds Brunton, L. L., Lazo, J. S. & Paker, K. L. pp. 137-181. New York: McGraw Hill). Regarding KCl-induced vasoconstriction, the CRC was generated by the contractile response to 6 mM increments of KCl solution, starting from 0 mM to 60 mM.
(§5) Consecutive CRCs were generated to each agonist, separated by 60 minutes, and if there was no difference in the maximum response (Emax) and pEC50 (defined as the negative logarithm of the concentration required to produce 50% of the maximum response) then a paired CRC protocol was used throughout. […]

[2] = system: sheep isolated rectal vein; assay: Wire myography, sheep isolated rectal vein (SRV); details: for rightward shift of the CRC for noradrenaline: prazosin 10 nM, RX811059 30 nM
Experimental: as §1, §2, §3, §4, §5

[3] = system: human isolated mesenteric vein; assay: Wire myography, human isolated mesenteric (colonic/rectal) vein (HMV); details: for effect on potency of noradrenaline: 10 nM prazosin, 30 nM RX811059; for EC50: Homo sapiens
From the text: (§6) After obtaining approval from the local research ethics committee (Reference number: 05/Q2403/171) and having written consent from the patient, human mesenteric (colonic or rectal) vessels were collected from patients who underwent colectomy and/or proctectomy at the Division of Gastrointestinal Surgery, Queen's Medical Centre, University of Nottingham, UK, between August 2009 and March 2010. Patients with a history of previous abdominal/pelvic radiotherapy, and patients with endocrine tumours or concomitant intraabdominal infection were excluded from this study. In an operating room, the mesentery containing the required segment of blood vessels was dissected from the whole surgical specimen immediately after it was removed from a patient. The tissue was then kept in a 100-ml pot containing pre-oxygenated Krebs-Henseleit buffer solution maintained at 4° C. until used. No experiments were conducted on tissue stored for more than 12 hours after dissection. The Krebs solution consisted of 118.4 mM NaCl, 4.7 mM KCl, 1.2 mM MgSO4, 1.2 mM KH2PO4, 1.25 mM CaCl2, 24.9 mM NaHCO3, and 11.1 mM glucose.
Before setting a wire myography experiment, human mesenteric (colonic/rectal) vessels were meticulously dissected from the surrounding mesenteric fatty tissue. The ‘clean’ vessel was then divided into 5-mm ring segments. Generally, the internal diameter of vessels ranged between 400-1000 μm for human mesenteric artery (HMA) and 500-1200 μm for human mesenteric vein (HMV). Each 5-mm ring segment was suspended between two 200-μm wire supports in an organ bath containing 20 ml Krebs-Henseleit buffer solution. The contractile study of human mesenteric vessels was then set in the similar manner of the previous study on sheep isolated rectal vessels.
After a 20-minute equilibration period, an initial resting tension of 8 and 1 gram weight (g wt) was gradually applied to arterial and venous ring segments, respectively, and left to relax for 30 minutes. The final resting tension varied between 1.8 g wt and 3.2 g wt for HMA, and between 0.07 g wt and 0.35 g wt for HMV. Once the vascular segments were fully settled, they were tested for contractile activity with 60 mM KCl three occasions, and an agonist concentration-response curves (CRC) was then reconstructed after the vessels were left to equilibrate for 60 minutes as previously described for sheep rectal vessels. […] In the case of noradrenaline study, 10 μM cocaine was added into the organ bath 40 minutes prior to the administration of noradrenaline for inhibiting the uptake of noradrenaline by neural tissue within the vascular wall (re-uptake 1) (Westfall & Westfall, 2006 In Goodman & Gilman's the Pharmacological Basis of Therapeutics. eds Brunton, L. L., Lazo, J. S. & Paker, K. L. pp. 137-181. New York: McGraw Hill).
Although it appeared that the CRCs of several vasoconstrictors were reproducible (no significant change in maximum response and agonist potency) in human mesenteric vessels, a single CRC, paired segment approach was adopted throughout the study of human blood vessels. This was due to a desire to limit the time of tissue storage and the ease of tissue preparation. The single CRC, paired segment approach involves the generation of only one agonist CRC per tissue. The maximum response (Emax) and pEC50 (defined as the negative logarithm of the concentration required to produce 50% of the maximum response) of each vascular segment were compared to those of other vascular segments (adjacent segments from the same patient, or other segments from different patients).
If the vessel had spontaneous and periodic contraction after the administration of S(−)-BayK8644—which occurred in 70% of HMA and 80% of HMV, the effect of agonist would be considered when there was an increase in the frequency of contraction as well as a rise in the baseline of vascular tone.
The selective α1-adrenoceptor antagonist prazosin and selective α2-adrenoceptor antagonist RX811059 were used in this study. […]

[4] = system: human isolated mesenteric artery; assay: Wire myography, human isolated mesenteric (colonic/rectal) artery (HMA)
From the text: as §6
Before setting a wire myography experiment, human mesenteric (colonic/rectal) vessels were meticulously dissected from the surrounding mesenteric fatty tissue. The ‘clean’ vessel was then divided into 5-mm ring segments. […]

[5] = Ovis aries, SRV, agonist alone (control)
[6] = Ovis aries, SRV, 10 nM prazosin / 30 nM RX811059 against noradrenaline
[7] = with 10 nM prazosin and 30 nM RX811059

## NC[C@H](O)c1ccc(O)c(O)c1 [noradrenaline]
[1]; SRA
  contractile response: concentration-dependent contractions
[2]; [5]
  EC50: 389 nM
[2]; Ovis aries, SRV, in the presence of 30 nM RX811059
  EC50: 1260 nM
[2]; SRV
  contractile response: concentration-dependent contractions
[2]; sheep rectal vessels, vein vs artery
  venoselectivity: 4 fold

## CCOC1(C2=NCCN2)COc2ccccc2O1 (stereo not drawn) [RX811059, 2-(2-ethoxy-1,4-benzodioxan-2-yl)-2-imidazoline]
[1]; SRA
  effect on the noradrenaline CRC: no change
[3]
  effect on potency of noradrenaline: significantly reduced the potency of noradrenaline
[3]; 30 nM
  parallel rightward shift of CRC to guanfacine: 2 fold
[2]; [6]
  Kb: 13.8 nM
[2]; SRV, 10 nM prazosin / 30 nM RX811059 against noradrenaline
  pKB: ~7.9
[2]; SRV, 30 nM RX811059 added to 10 nM prazosin
  further rightward shift of the CRC for noradrenaline: 1.6 fold
[2]; SRV
  rightward shift of the CRC for noradrenaline: 3 fold

## O=c1c(O)c(-c2cc(O)c(O)c(O)c2)oc2cc(O)cc(O)c12 [myricetin, 3,3′,4′,5,5′,7-hesahydroxyflavone]
[1]
  spontaneous contraction: no spontaneous contraction

## NCCc1c[nH]c2ccc(O)cc12 [5-HT, 5-hydroxytryptamine]
[1]; SRA
  contractile response: concentration-dependent contractions
[2]; SRV
  contractile response: concentration-dependent contractions

## COc1ccc(-c2cc(=O)c3c(O)cc(O[C@@H]4O[C@H](CO[C@@H]5O[C@@H](C)[C@H](O)[C@@H](O)[C@H]5O)[C@@H](O)[C@H](O)[C@H]4O)cc3o2)cc1O [diosmin, 3′,5,7-trihydroxy-4′-methoxyflavone 7-rutinoside]
[1]
  spontaneous contraction: no spontaneous contraction

## COc1ccc(OC)c(C(O)C(C)N)c1 [L-erythro methoxamine]
[1]; SRA
  contractile response: concentration-dependent contractions
[1]; SRA and SRV
  maximum response as fraction of that to noradrenaline: one-third
[1]; sheep rectal vessels, artery vs vein
  arterioselectivity: 3 fold
[2]; SRV
  contractile response: concentration-dependent contractions

## [Cl-].[K+] [KCl]
[1]; SRA
  contractile response: sustained concentration-dependent contraction
[1]; SRA, n=119
  mean contraction to 60 mM KCl: 3.14±0.09 g wt
[2]; SRV
  contractile response: concentration-dependent contractions
[2]; SRV, n=128
  mean contraction to 60 mM KCl: 1.18±0.05 g wt

## COc1cc2nc(N3CCN(C(=O)c4ccco4)CC3)nc(N)c2cc1OC [prazosin]
[1]; Ovis aries, SRA and SRV, contraction to noradrenaline (summary)
  Kb: 0.158 to 0.398 nM
[1]; Ovis aries, SRA, 2 nM prazosin against noradrenaline-induced contraction
  Kb: 0.398 nM
[1]; SRA
  effect on the noradrenaline CRC: concentration-dependent, parallel rightward shift
[3]
  effect on potency of noradrenaline: significantly reduced the potency of noradrenaline
[4]; Homo sapiens, noradrenaline-induced contractions
  Kb: 0.316 nM
[2]; [6]
  Kb: 0.17 nM
[2]; SRV
  rightward shift of the CRC for noradrenaline: 70 fold

## COC(=O)C1=C(C)NC(C)=C([N+](=O)[O-])[C@H]1c1ccccc1C(F)(F)F [S(−)-BayK8644, (4S)-1,4-dihydro-2,6-dimethyl-5-nitro-4-[2-(trifluoromethyl)-phenyl]-3-pyridine carboxylic acid methyl ester]
[1]; SRA and SRV, 1 μM
  effect on 5-HT-induced contraction: no effect
[1]; SRA, 1 μM
  effect on potency of KCl: significantly increased the potency
  observations with spontaneous contraction: 6%
[3]; 1 μM
  vessels with spontaneous phasic contraction: 80% and 83%
[4]; 1 μM
  vessels with spontaneous phasic contraction: 70% and 71%
[2]; SRV, 1 μM
  effect on potency of noradrenaline: significantly increased the potency

## N=C(N)NC(=O)Cc1c(Cl)cccc1Cl [guanfacine]
[1]; Ovis aries, SRA, agonist alone
  EC50: 794 nM
[1]; Ovis aries, SRA, read-out: maximum response relative to maximum response to noradrenaline
  Emax: ~20%
[1]; SRA
  contractile response: concentration-dependent contractions
[3]; control
  EC50: 2240 nM
  Emax: 31.4±4.1 percentage of the contraction
[3]; with 10 nM prazosin
  EC50: 2450 nM
  Emax: 18.4±4.1 percentage of the contraction
[3]; [7]
  EC50: 6460 nM
  Emax: 20.3±8.5 percentage of the contraction
[3]; with 30 nM RX811059
  EC50: 5250 nM
  Emax: 33.0±4.1 percentage of the contraction
[2]; [5]
  EC50: 398 nM
[2]; Ovis aries, SRV, in the presence of 10 nM prazosin and 30 nM RX811059
  EC50: 912 nM
[2]; Ovis aries, SRV, in the presence of 1 μM S(−)-BayK8644
  EC50: 229 nM
[2]; Ovis aries, SRV, read-out: maximum response relative to maximum response to noradrenaline
  Emax: 45%
[2]; SRV
  contractile response: concentration-dependent contractions
[2]; SRV, agonist alone (control)
  Emax: 54.7±8.1 percentage of the contraction and 37.0±6.6 percentage of the contraction
  pEC50: 6.58±0.07 and 6.48±0.11
[2]; SRV, in the presence of 10 nM prazosin and 30 nM RX811059
  Emax: 31.3±4.2 percentage of the contraction
[2]; SRV, in the presence of 1 μM S(−)-BayK8644
  Emax: 72.8±9.0 percentage of the contraction
